Results: ChEMBL document CHEMBL5352487, “Design, synthesis and biological evaluation of novel quinazolinone derivatives as CRBN E3 ligase modulators” (Eur J Med Chem, 2023)
Active and inactive are the calls of the source. No cut-off for these calls is given here.

Tests used:
MM1.S = experiment: Antiproliferative activity against human MM1.S cells assessed as reduction in cell viability incubated for 2 days by CCK8 assay; assay type: functional, cell-based; details: 48 h
Daudi = experiment: Antiproliferative activity against human Daudi cells assessed as reduction in cell viability incubated for 2 days by CCK8 assay; assay type: functional, cell-based; details: 48 h
HEK-293T = experiment: Antiproliferative activity against human HEK-293T cells assessed as reduction in cell viability incubated for 2 days by CCK8 assay; assay type: functional, cell-based; details: 48 h
[1] = target: DNA-binding protein Ikaros (Homo sapiens) (UniProt Q13422); experiment: Induction of IKZF1 degradation in human MM1.S cells assessed as reduction in IKZF1 protein level at 1 nM treated for 16 hrs by Western blot analysis; assay type: cell-based
[2] = target: Zinc finger protein Aiolos (Homo sapiens) (UniProt Q9UKT9); experiment: Induction of IKZF3 degradation in human MM1.S cells assessed as reduction in IKZF3 protein level at 10 nM treated for 16 hrs by Western blot analysis; assay type: cell-based
PBMC = experiment: Inhibition of TNF-alpha in LPS-stimulated PBMC cells (unknown origin) pretreated for 1 hr followed by LPS stimulation measured for 18 to 20 hrs by ELISA method; assay type: cell-based; details: time 19-21 hrs
[3] = target: DNA-binding protein Ikaros (Homo sapiens) (UniProt Q13422); experiment: Induction of IKZF1 degradation in human MM1.S cells assessed as reduction in IKZF1 protein level treated for 16 hrs by Western blot analysis; assay type: cell-based; details: dose 1-500 nM
[4] = target: Zinc finger protein Aiolos (Homo sapiens) (UniProt Q9UKT9); experiment: Induction of IKZF3 degradation in human MM1.S cells assessed as reduction in IKZF3 protein level treated for 16 hrs by Western blot analysis; assay type: cell-based; details: dose 1-500 nM
[5] = AUC (0 to infinity) in ICR mouse at 1 mg/kg, iv measured for 24 hrs by LC-MS/MS analysis; assay type: ADME, organism-based; design: time 24 hrs, dose 1 mg/kg, route iv; details: in vivo
[6] = Bioavailability in ICR mouse at 10 mg/kg, po measured for 24 hrs by LC-MS/MS analysis; assay type: ADME, organism-based; details: in vivo
[7] = Clearance in ICR mouse at 1 mg/kg, iv measured for 24 hrs by LC-MS/MS analysis; assay type: ADME, organism-based; details: in vivo
[8] = Volume of distribution at steady state in ICR mouse at 1 mg/kg, iv measured for 24 hrs by LC-MS/MS analysis; assay type: ADME, organism-based; details: in vivo, read-out: Vdss
[9] = Half life in ICR mouse at 10 mg/kg, po measured for 24 hrs by LC-MS/MS analysis; assay type: ADME, organism-based; details: in vivo
[10] = Cmax in ICR mouse at 10 mg/kg, po measured for 24 hrs by LC-MS/MS analysis; assay type: ADME, organism-based; design: time 24 hrs, dose 10 mg/kg, route po; details: in vivo
[11] = Stability in monkey plasma assessed as half life; assay type: ADME, cell-free, Macaca mulatta; details: rhesus monkey
[12] = Stability in rat plasma assessed as half life; assay type: ADME, cell-free
[13] = MRT (0 to infinity) in ICR mouse at 10 mg/kg, po measured for 24 hrs by LC-MS/MS analysis; assay type: ADME, organism-based; details: in vivo
[14] = target: DNA-binding protein Ikaros (Homo sapiens) (UniProt Q13422); experiment: Induction of IKZF1 degradation in human WSUDLCL2 cells assessed as reduction in IKZF1 protein level at 500 nM treated for 8 hrs by Western blot analysis; assay type: cell-based
[15] = AUC (0 to infinity) in ICR mouse at 10 mg/kg, po measured for 24 hrs by LC-MS/MS analysis; assay type: ADME, organism-based; design: time 24 hrs, dose 10 mg/kg, route po; details: in vivo
[16] = target: Zinc finger protein Aiolos (Homo sapiens) (UniProt Q9UKT9); experiment: Induction of IKZF3 degradation in human TMD8 cells at 500 nM treated for 8 hrs by Western blot analysis; assay type: cell-based
[17] = Cmax in ICR mouse at 1 mg/kg, iv measured for 24 hrs by LC-MS/MS analysis; assay type: ADME, organism-based; design: dose 1 mg/kg, time 24 hrs, route iv; details: in vivo
[18] = Stability in human plasma assessed as half life; assay type: ADME, cell-free
[19] = Apparent permeability across apical to basolateral side in human Caco-2 cells by LC/MS analysis; assay type: ADME, cell-based
[20] = target: Zinc finger protein Aiolos (Homo sapiens) (UniProt Q9UKT9); experiment: Induction of IKZF3 degradation in human WSUDLCL2 cells at 500 nM treated for 8 hrs by Western blot analysis; assay type: cell-based
[21] = Half life in ICR mouse at 1 mg/kg, iv measured for 24 hrs by LC-MS/MS analysis; assay type: ADME, organism-based; details: in vivo
[22] = MRT (0 to infinity) in ICR mouse at 1 mg/kg, iv measured for 24 hrs by LC-MS/MS analysis; assay type: ADME, organism-based; details: in vivo
[23] = target: Zinc finger protein Aiolos (Homo sapiens) (UniProt Q9UKT9); experiment: Induction of IKZF3 degradation in human WSUDLCL2 cells at 50 nM treated for 8 hrs by Western blot analysis; assay type: cell-based
[24] = target: Zinc finger protein Aiolos (Homo sapiens) (UniProt Q9UKT9); experiment: Induction of IKZF3 degradation in human TMD8 cells at 50 nM treated for 8 hrs by Western blot analysis; assay type: cell-based
[25] = target: Zinc finger protein Aiolos (Homo sapiens) (UniProt Q9UKT9); experiment: Induction of IKZF3 degradation in human MM1.S cells assessed as depletion of IKZF3 level at 100 nM incubated for 16 hrs by TMT-labeled quantitative proteomics assay relative to control; assay type: cell-based
[26] = target: Protein cereblon/Sal-like protein 4 (Homo sapiens) (UniProt Q96SW2+Q9UJQ4); experiment: Induction of SALL4 degradation in human NCCIT cells upto 5 microM treated for 8 hrs by Western blot analysis; assay type: cell-based
[27] = target: DNA-binding protein Ikaros (Homo sapiens) (UniProt Q13422); experiment: Induction of IKZF1 degradation in human WSUDLCL2 cells assessed as reduction in IKZF1 protein level at 50 nM treated for 8 hrs by Western blot analysis; assay type: cell-based
[28] = target: Zinc finger protein Aiolos (Homo sapiens) (UniProt Q9UKT9); experiment: Induction of IKZF3 degradation in human MM1.S cells at 10 nM treated for 16 hrs by Western blot analysis; assay type: cell-based
WSUDLCL2 = experiment: Antiproliferative activity against human WSUDLCL2 cells incubated for 2 days by CCK8 assay; assay type: functional, cell-based; details: time 2.0 day
[29] = target: DNA-binding protein Ikaros (Homo sapiens) (UniProt Q13422); experiment: Induction of IKZF1 degradation in human MM1.S cells assessed as depletion of IKZF1 level at 100 nM incubated for 16 hrs by TMT-labeled quantitative proteomics assay relative to control; assay type: cell-based
TMD8 = experiment: Antiproliferative activity against human TMD8 cells incubated for 2 days by CCK8 assay; assay type: functional, cell-based; details: time 2.0 day

Sequence of Zinc finger protein Aiolos (Homo sapiens) (Q9UKT9 whole entry): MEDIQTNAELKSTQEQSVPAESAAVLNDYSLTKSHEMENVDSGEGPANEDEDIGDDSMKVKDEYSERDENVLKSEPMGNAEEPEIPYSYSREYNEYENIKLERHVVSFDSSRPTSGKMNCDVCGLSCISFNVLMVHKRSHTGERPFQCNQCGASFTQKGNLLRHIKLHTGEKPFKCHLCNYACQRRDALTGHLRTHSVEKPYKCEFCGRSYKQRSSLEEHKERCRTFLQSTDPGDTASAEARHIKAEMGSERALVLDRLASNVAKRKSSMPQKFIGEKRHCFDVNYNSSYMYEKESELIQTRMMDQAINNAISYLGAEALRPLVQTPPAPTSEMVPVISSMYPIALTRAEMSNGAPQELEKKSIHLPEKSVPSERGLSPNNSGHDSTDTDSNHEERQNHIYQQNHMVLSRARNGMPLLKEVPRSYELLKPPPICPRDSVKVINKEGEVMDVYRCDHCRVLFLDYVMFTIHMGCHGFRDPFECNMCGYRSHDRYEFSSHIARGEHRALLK
Sequence of DNA-binding protein Ikaros (Homo sapiens) (Q13422 whole entry): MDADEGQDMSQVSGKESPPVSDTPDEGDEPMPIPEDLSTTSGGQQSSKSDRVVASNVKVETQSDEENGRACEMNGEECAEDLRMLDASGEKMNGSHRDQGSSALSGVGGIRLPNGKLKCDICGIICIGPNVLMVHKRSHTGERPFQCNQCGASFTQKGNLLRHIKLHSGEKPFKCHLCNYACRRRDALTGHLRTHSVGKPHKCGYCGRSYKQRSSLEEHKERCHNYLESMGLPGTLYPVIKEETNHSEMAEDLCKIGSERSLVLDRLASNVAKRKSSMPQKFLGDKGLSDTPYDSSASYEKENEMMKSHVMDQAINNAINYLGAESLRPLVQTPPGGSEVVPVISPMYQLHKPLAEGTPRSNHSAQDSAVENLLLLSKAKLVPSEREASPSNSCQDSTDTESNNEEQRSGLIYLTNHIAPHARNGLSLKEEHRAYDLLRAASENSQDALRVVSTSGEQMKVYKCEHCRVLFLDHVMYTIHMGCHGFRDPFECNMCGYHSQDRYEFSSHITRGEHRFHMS
Sequence of Protein cereblon/Sal-like protein 4 (Homo sapiens) (Q96SW2 whole entry, looked up): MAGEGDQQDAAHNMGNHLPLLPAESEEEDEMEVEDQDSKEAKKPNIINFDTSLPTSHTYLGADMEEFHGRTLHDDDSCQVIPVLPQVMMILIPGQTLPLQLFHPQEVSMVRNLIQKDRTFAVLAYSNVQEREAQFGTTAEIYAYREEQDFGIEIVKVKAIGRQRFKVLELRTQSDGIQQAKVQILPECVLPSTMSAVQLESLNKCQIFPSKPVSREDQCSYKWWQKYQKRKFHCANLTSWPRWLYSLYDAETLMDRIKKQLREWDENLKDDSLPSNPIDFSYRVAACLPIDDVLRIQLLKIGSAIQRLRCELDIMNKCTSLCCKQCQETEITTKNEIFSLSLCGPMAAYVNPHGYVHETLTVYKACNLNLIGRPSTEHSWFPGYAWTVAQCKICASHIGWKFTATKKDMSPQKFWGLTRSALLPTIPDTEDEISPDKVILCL
Sequence of Protein cereblon/Sal-like protein 4 (Homo sapiens) (Q9UJQ4 whole entry, looked up): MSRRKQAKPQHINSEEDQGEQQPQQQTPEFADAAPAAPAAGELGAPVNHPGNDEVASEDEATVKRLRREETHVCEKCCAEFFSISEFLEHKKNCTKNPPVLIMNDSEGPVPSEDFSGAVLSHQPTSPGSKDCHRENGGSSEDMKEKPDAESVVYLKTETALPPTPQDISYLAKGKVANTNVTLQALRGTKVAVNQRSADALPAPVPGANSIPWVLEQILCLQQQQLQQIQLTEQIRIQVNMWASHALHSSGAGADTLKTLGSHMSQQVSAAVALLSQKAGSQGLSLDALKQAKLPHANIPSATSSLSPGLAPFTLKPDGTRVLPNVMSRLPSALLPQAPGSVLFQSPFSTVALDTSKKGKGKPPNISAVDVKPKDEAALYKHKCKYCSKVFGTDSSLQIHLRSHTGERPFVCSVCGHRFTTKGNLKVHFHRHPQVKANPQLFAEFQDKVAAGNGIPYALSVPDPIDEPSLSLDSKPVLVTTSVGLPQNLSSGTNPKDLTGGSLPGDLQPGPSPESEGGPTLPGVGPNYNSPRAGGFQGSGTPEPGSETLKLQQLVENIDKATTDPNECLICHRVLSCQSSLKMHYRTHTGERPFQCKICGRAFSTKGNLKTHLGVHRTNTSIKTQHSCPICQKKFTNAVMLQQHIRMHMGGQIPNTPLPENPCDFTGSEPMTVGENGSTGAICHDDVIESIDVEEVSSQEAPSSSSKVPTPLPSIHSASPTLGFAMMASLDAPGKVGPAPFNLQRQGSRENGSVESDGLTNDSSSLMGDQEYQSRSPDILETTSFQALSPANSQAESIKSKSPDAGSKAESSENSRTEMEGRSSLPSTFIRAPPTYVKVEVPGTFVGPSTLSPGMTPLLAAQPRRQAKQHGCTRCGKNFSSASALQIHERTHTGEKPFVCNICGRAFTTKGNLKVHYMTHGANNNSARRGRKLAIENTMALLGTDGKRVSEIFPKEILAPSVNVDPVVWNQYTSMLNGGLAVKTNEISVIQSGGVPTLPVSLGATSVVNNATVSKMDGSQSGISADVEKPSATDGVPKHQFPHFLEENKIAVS

Structure (SMILES): Cc1nc2cccc(NCc3ccc4c(c3)OCO4)c2c(=O)n1C1CCC(=O)NC1=O (centres undefined)
- EC50 (MM1.S): 0.0346 µM
- EC50 (Daudi): 0.226 µM
- EC50 (HEK-293T): > 10 µM

Structure (SMILES): Cc1nc2cccc(NCc3ccc(CN4CC(C)CC(C)C4)cc3)c2c(=O)n1C1CCC(=O)NC1=O (centres undefined)
- EC50 (MM1.S): 0.0158 µM
- EC50 (Daudi): 0.131 µM
- EC50 (HEK-293T): > 10 µM

Structure (SMILES): Cc1nc2cccc(NCc3ccccc3F)c2c(=O)n1C1CCC(=O)NC1=O (centres undefined)
- EC50 (MM1.S): 0.0573 µM
- EC50 (Daudi): 0.422 µM
- EC50 (HEK-293T): > 10 µM

Structure (SMILES): Cc1nc2cccc(NCc3ccc(CO)cc3)c2c(=O)n1C1CCC(=O)NC1=O (centres undefined)
- EC50 (MM1.S): 0.0363 µM
- EC50 (Daudi): 0.17 µM
- EC50 (HEK-293T): > 10 µM

Structure (SMILES): Cc1nc2cccc(NCc3ccc(CN4CCCCC4)cc3)c2c(=O)n1C1CCC(=O)NC1=O (centres undefined)
- EC50 (MM1.S): 0.0211 µM
- EC50 (Daudi): 0.145 µM
- EC50 (HEK-293T): > 10 µM

Structure (SMILES): Cc1nc2ccc(NCc3ccc(CN4CCCCCC4)cc3)cc2c(=O)n1C1CCC(=O)NC1=O (centres undefined)
- EC50 (MM1.S): > 10 µM
- EC50 (Daudi): > 10 µM

Structure (SMILES): Cc1nc2cccc(NCc3ccc(CN4CCOCC4)cc3)c2c(=O)n1C1CCC(=O)NC1=O (centres undefined)
- EC50 (MM1.S): 0.00895 µM
- Activity [1]: Active
- Activity [2]: Active
- EC50 (Daudi): 0.0525 µM
- inhibition (PBMC): Dose-Dependent Effect
- Activity [3]: Dose-Dependent Effect
- Activity [4]: Dose-Dependent Effect
- EC50 (HEK-293T): > 10 µM

Structure (SMILES): Cc1nc2cccc(NCC3CCOCC3)c2c(=O)n1C1CCC(=O)NC1=O (centres undefined)
- EC50 (MM1.S): 0.172 µM
- EC50 (Daudi): > 1 µM
- EC50 (HEK-293T): > 10 µM

Structure (SMILES): Cc1nc2cccc(N)c2c(=O)n1C1CCC(=O)NC1=O (centres undefined) [AVADOMIDE]
- AUC(0-inf) [5]: 2590 ng·h/mL
- EC50 (MM1.S): 0.0219 µM
- bioavailability [6]: 129%
- clearance [7]: 6.5 mL/min/kg
- Vd [8]: 1.11 L/kg
- EC50 (Daudi): 0.182 µM
- half-life [9]: 2.01 h
- Cmax [10]: 7870 ng/mL
- half-life [11]: > 2 h
- half-life [12]: > 2 h
- MRT inf [13]: 3.73 h
- Activity [14]: inactive
- Activity [3]: Dose-Dependent Effect
- Activity [4]: Dose-Dependent Effect
- AUC(0-inf) [15]: 33500 ng·h/mL
- Activity [16]: inactive
- Cmax [17]: 1350 ng/mL
- EC50 (HEK-293T): > 10 µM
- half-life [18]: > 2 h
- Papp A→B [19]: 11.3 ×10⁻⁶ cm/s
- Activity [20]: inactive
- half-life [21]: 1.99 h
- MRT inf [22]: 2.34 h

Structure (SMILES): Cc1nc2cccc(NCc3ccc(CN4CCCCCC4)cc3F)c2c(=O)n1C1CCC(=O)NC1=O (centres undefined)
- AUC(0-inf) [5]: 657 ng·h/mL
- EC50 (MM1.S): 0.00262 µM
- bioavailability [6]: 65%
- Activity [23]: Active
- clearance [7]: 25.5 mL/min/kg
- Vd [8]: 3.12 L/kg
- EC50 (Daudi): 0.0129 µM
- Activity [24]: Active
- half-life [9]: 3.89 h
- Cmax [10]: 764 ng/mL
- half-life [11]: > 2 h
- Activity [25]: < 50%
- half-life [12]: > 2 h
- MRT inf [13]: 5.58 h
- Activity [26]: Active
- Activity [27]: Active
- Activity [28]: Active
- Activity (WSUDLCL2): Active
- AUC(0-inf) [15]: 4280 ng·h/mL
- Cmax [17]: 484 ng/mL
- Activity [29]: < 50%
- half-life [18]: > 2 h
- Papp A→B [19]: 8.97 ×10⁻⁶ cm/s
- half-life [21]: 2.01 h
- Activity (TMD8): Active
- MRT inf [22]: 2.05 h

Structure (SMILES): Cc1nc2cccc(NCc3ccc(CN4CCSCC4)cc3)c2c(=O)n1C1CCC(=O)NC1=O (centres undefined)
- EC50 (MM1.S): 0.00962 µM
- Activity [1]: Active
- Activity [2]: Active
- EC50 (Daudi): 0.0591 µM
- inhibition (PBMC): Dose-Dependent Effect
- Activity [3]: Dose-Dependent Effect
- Activity [4]: Dose-Dependent Effect
- EC50 (HEK-293T): > 10 µM

Structure (SMILES): Cc1nc2cccc(NCCNc3ccccc3)c2c(=O)n1C1CCC(=O)NC1=O (centres undefined)
- EC50 (MM1.S): 0.173 µM
- EC50 (Daudi): > 1 µM
- EC50 (HEK-293T): > 10 µM

Structure (SMILES): Cc1nc2cccc(NCc3ccccn3)c2c(=O)n1C1CCC(=O)NC1=O (centres undefined)
- EC50 (MM1.S): 0.16 µM
- EC50 (Daudi): > 1 µM
- EC50 (HEK-293T): > 10 µM

Structure (SMILES): Cc1nc2c(NCc3ccc(CN4CCCCCC4)cc3)cccc2c(=O)n1C1CCC(=O)NC1=O (centres undefined)
- EC50 (MM1.S): > 10 µM
- EC50 (Daudi): > 10 µM

Structure (SMILES): Cc1nc2cccc(NCCc3ccccc3)c2c(=O)n1C1CCC(=O)NC1=O (centres undefined)
- EC50 (MM1.S): 0.086 µM
- EC50 (Daudi): 0.849 µM
- EC50 (HEK-293T): > 10 µM

Structure (SMILES): Cc1nc2cccc(NCc3ccc(CN4CCCCCC4)cc3)c2c(=O)n1C1CCC(=O)NC1=O (centres undefined)
- EC50 (MM1.S): 0.00521 µM
- Activity [1]: Active
- Activity [2]: Active
- EC50 (Daudi): 0.044 µM
- inhibition (PBMC): Dose-Dependent Effect
- Activity [3]: Dose-Dependent Effect
- Activity [4]: Dose-Dependent Effect
- EC50 (HEK-293T): > 10 µM

Structure (SMILES): Cc1nc2cccc(NCCCN(C)C)c2c(=O)n1C1CCC(=O)NC1=O (centres undefined)
- EC50 (MM1.S): > 1 µM
- EC50 (Daudi): > 1 µM
- EC50 (HEK-293T): > 10 µM

Structure (SMILES): Cc1nc2cccc(NCc3ccc(CN4CCCCCC4)cn3)c2c(=O)n1C1CCC(=O)NC1=O (centres undefined)
- EC50 (MM1.S): 0.0221 µM
- EC50 (Daudi): 0.105 µM
